Measurements as given in patent publication US20100330116A1, “LIVE […] USE AS VACCINE” (The University of Queensland, priority 2004, published 2010).

How the values were obtained:
FD436 [1] = assay: MIC determination of nalidixic acid and rifampicin (broth dilution, Bioscreen turbidity); conditions: TSB, 37° C., 24 h
FD436 [2] = assay: MBC determination of nalidixic acid and rifampicin (growth on SBA plates); conditions: TSB, then SBA 37° C., 48 h

| Compound | MIC for FD436 (FD436 [1]) | MBC for FD436 (FD436 [2]) |
| --- | --- | --- |
| CCn1cc(C(=O)O)c(=O)c2ccc(C)nc21 [Nalidixic acid] | 0.00125 % (w/v) | 0.00125 % (w/v) |
| CO[C@H]1/C=C/O[C@@]2(C)Oc3c(C)c(O)c4c(O)c(c(/C=N/N5CCN(C)CC5)c(O)c4c3C2=O)NC(=O)/C(C)=C\C=C\[C@H](C)[C@H](O)[C@@H](C)[C@@H](O)[C@@H](C)[C@H](OC(C)=O)[C@@H]1C [Rifampicin] | 0.0025 % (w/v) | 0.0025 % (w/v) |
